Assay results published in patent publication US12692234B2, “Rock inhibitors and uses thereof” (Alcon Inc., priority 2024, dated 2026).

Columns and labels:
ROCK1 = ROCK1 (Homo sapiens, UniProt Q13464); experiment: Kinase inhibition assay (KINASE-GLO), ROCK1; format: biochemical
ROCK2 = ROCK2 (Homo sapiens, UniProt O75116); conditions: read-out: Ki (nM) ROCK2
ROCK2, sequence (O75116 whole entry): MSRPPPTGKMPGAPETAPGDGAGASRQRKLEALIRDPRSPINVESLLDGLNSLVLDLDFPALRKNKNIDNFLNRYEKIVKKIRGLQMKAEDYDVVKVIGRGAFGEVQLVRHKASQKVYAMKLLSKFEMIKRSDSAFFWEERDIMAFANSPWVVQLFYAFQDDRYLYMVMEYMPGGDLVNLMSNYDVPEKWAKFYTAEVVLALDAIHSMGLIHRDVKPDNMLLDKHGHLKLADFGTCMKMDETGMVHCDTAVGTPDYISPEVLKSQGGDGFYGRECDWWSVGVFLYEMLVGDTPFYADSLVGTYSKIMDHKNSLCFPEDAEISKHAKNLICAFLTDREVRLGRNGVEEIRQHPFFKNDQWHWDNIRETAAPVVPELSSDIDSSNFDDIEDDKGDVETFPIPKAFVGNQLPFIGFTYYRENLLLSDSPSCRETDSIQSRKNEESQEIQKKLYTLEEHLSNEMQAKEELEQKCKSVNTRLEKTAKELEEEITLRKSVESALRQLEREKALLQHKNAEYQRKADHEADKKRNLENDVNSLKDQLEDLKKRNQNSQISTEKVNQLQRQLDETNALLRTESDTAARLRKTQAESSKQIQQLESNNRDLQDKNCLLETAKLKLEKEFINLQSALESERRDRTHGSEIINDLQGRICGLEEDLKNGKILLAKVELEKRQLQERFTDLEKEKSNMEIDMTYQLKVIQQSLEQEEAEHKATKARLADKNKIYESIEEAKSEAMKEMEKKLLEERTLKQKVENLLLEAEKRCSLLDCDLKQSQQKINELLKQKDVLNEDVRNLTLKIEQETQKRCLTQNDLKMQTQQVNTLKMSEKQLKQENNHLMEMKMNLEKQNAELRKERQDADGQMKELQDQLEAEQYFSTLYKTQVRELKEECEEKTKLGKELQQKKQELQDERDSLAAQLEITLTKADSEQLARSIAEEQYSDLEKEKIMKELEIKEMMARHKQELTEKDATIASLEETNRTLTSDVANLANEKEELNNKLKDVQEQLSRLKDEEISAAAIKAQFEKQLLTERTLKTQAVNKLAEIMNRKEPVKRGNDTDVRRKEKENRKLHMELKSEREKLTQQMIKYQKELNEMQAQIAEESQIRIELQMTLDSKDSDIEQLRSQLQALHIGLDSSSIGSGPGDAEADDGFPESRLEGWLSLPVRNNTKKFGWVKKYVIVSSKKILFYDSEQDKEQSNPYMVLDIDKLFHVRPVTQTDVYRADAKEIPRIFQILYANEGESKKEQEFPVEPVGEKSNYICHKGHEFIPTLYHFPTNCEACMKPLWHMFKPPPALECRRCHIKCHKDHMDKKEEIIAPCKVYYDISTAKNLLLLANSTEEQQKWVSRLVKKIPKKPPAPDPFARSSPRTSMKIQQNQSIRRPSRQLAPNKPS

ROCK1, sequence (Q13464 whole entry): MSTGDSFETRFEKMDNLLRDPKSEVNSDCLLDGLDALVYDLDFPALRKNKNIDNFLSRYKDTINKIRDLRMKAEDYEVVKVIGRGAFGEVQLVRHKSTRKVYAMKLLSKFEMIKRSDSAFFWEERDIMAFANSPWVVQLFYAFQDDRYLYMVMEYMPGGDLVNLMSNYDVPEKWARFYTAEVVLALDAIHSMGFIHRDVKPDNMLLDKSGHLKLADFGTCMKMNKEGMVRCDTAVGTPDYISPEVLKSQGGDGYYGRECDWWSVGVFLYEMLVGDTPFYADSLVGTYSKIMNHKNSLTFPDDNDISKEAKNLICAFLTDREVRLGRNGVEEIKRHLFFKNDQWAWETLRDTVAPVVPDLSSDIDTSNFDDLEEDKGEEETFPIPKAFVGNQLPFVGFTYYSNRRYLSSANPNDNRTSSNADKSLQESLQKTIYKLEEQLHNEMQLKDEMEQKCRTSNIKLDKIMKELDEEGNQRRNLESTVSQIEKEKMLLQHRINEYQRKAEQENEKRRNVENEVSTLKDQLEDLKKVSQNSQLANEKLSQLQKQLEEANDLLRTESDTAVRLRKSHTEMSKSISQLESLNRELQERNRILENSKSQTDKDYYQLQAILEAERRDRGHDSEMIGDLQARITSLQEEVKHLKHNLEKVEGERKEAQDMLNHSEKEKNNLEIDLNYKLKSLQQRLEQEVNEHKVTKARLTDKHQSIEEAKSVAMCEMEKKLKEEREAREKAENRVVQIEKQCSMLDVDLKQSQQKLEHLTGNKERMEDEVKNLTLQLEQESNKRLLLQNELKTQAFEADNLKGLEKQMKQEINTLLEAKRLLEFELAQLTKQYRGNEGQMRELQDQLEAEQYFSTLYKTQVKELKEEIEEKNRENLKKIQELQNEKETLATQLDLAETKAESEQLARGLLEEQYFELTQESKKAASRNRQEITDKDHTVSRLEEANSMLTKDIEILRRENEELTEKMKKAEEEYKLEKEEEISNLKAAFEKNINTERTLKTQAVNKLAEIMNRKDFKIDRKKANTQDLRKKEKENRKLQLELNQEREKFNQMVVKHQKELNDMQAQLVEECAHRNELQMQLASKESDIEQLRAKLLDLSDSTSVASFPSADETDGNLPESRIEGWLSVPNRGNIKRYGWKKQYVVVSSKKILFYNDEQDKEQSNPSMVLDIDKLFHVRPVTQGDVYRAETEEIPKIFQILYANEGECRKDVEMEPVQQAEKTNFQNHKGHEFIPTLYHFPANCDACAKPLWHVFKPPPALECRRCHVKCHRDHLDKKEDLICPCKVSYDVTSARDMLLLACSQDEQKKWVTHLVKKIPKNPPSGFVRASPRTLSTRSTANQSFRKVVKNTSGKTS

Q: NC[C@@H](C(=O)Nc1ccc2cnccc2c1)c1ccc(CO)cc1 was tested. Which Ki (ROCK1) did it give?
A: 0.2 nM

Q: What about the Ki (ROCK2) of the same compound?
A: 0.2 nM
